Measured values published in patent US20080312255A1 (ASTRAZENECA AB, priority 2007, published 2008).

Target: S. aureus GyrB ATPase (Staphylococcus aureus, UniProt P0A0K8)
Experiment: S. aureus GyrB ATPase inhibition (ammonium molybdate/malachite green phosphate detection)
Format: biochemical
Conditions: compound concentration of 1 μM
In short: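 E. coli GyrA and S. aureus GyrB (250 pM each) with sheared salmon sperm DNA and 250 μM ATP, pH 7.5 Hepes buffer. Released phosphate detected by malachite green/ammonium molybdate at 650 nm; percent inhibition at 1 μM compound unless noted, normalized to 2% DMSO (0%) and EDTA (100%) controls.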

Sequence of S. aureus GyrB ATPase (P0AES4 whole entry): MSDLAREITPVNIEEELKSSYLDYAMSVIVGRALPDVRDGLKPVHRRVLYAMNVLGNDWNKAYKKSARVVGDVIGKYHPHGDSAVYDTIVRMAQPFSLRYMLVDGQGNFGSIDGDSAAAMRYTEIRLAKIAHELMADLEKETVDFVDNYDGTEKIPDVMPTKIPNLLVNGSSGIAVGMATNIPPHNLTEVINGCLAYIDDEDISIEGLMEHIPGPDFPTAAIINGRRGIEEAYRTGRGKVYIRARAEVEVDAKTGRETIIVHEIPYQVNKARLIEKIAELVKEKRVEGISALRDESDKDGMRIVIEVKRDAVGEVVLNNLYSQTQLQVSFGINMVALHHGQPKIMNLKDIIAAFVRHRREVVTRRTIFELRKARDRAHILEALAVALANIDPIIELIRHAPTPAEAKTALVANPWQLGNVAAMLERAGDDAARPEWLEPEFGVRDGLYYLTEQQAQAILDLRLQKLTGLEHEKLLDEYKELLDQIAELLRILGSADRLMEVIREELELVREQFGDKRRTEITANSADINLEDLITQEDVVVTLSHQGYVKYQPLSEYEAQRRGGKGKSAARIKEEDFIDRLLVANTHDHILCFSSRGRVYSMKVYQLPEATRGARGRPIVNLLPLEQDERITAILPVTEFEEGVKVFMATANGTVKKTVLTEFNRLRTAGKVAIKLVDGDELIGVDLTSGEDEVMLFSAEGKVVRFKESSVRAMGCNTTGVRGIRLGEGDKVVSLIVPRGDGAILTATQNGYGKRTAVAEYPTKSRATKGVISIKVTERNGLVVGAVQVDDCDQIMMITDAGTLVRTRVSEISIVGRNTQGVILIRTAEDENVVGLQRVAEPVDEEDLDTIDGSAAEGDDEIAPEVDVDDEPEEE
Sequence of S. aureus GyrB ATPase (P0A0K8 whole entry): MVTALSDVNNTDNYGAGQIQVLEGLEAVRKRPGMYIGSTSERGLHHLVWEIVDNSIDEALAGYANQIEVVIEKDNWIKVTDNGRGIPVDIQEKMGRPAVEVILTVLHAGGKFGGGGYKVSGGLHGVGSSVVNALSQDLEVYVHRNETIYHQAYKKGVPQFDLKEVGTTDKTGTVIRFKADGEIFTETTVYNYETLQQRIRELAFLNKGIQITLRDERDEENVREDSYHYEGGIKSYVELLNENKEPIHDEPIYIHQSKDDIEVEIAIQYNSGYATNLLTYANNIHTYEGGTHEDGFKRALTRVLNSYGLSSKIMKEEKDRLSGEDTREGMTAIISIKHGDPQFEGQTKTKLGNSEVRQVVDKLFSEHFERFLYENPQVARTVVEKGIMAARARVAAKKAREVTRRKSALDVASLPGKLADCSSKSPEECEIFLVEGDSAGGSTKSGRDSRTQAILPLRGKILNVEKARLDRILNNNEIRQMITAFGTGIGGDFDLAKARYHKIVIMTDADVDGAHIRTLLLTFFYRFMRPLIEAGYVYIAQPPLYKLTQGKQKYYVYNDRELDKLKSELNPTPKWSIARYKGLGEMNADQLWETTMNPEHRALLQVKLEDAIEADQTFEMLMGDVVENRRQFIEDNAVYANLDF

Structure (SMILES) | inhibition at 1 µM
COC(=O)c1sc(N2CC[C@@H](NC(=O)c3[nH]c(C)c(Cl)c3C#N)[C@@H](OC)C2)nc1-c1cn(C)nn1 [Example 103, methyl 2-((3S,4R)-4-(4-chloro-3-cyano-5-methyl-1H-pyrrole-2-carboxamido)-3-methoxypiperidin-1-yl)-4-(1-methyl-1H-1,2,3-triazol-4-yl)thiazole-5-carboxylate] | 85.7%
CCOC(=O)c1sc(N2CC[C@@H](NC(=O)c3[nH]c(C)c(Cl)c3Cl)[C@@H](OC)C2)nc1-c1nnco1 [Example 83] | 102%
COC(=O)c1sc(N2CC[C@@H](NC(=O)c3[nH]c(C)c(Cl)c3Cl)[C@@H](F)C2)nc1-c1nccs1 [Example 47] | 101%
CCOC(=O)c1sc(N2CC[C@@H](NC(=O)c3[nH]c(C)c(Cl)c3Cl)[C@@H](OC)C2)nc1-c1nnc(C)o1 [Example 85, Ethyl 2-((3S,4R)-4-{[(3,4-dichloro-5-methyl-1H-pyrrol-2-yl)carbonyl]amino}-3-methoxypiperidin-1-yl)-4-(5-methyl-1,3,4-oxadiazol-2-yl)-1,3-thiazole-5-carboxylate] | 102%
CCOC(=O)c1sc(N2CC[C@@H](NC(=O)c3[nH]c(C)c(Cl)c3Cl)[C@@H](F)C2)nc1-c1cn(C)cn1 [Example 78] | 101%
Cc1[nH]c(C(=O)N[C@@H]2CCN(c3nc(-c4cc(N(C)C)nc(N(C)C)n4)c(C(=O)O)s3)C[C@@H]2F)c(Cl)c1Cl [Example 10, 4-[2,6-Bis(dimethylamino)pyrimidin-4-yl]-2-((3S,4R)-4-{[(3,4-dichloro-5-methyl-1H-pyrrol-2-yl)carbonyl]amino}-3-fluoropiperidin-1-yl)-1,3-thiazole-5-carboxylic acid] | 101%
CO[C@H]1CN(c2nc(-c3ncc[nH]3)c(C(=O)O)s2)CC[C@H]1NC(=O)c1[nH]c(C)c(Cl)c1Cl [Example 18, 2-((3S,4R)-4-{[(3,4-Dichloro-5-methyl-1H-pyrrol-2-yl)carbonyl]amino}-3-methoxypiperidin-1-yl)-4-(1H-imidazol-2-yl)-1,3-thiazole-5-carboxylic acid] | 101%
CNc1nc(-c2nc(N3CC[C@@H](NC(=O)c4[nH]c(C)c(Cl)c4Cl)[C@@H](F)C3)sc2C(=O)O)cs1 [Example 37, 2-((3S,4R)-4-{[(3,4-Dichloro-5-methyl-1H-pyrrol-2-yl)carbonyl]amino}-3-fluoropiperidin-1-yl)-2′-(methylamino)-4,4′-bi-1,3-thiazole-5-carboxylic acid] | 101%
COC(=O)c1sc(N2CC[C@@H](NC(=O)c3[nH]c(C)c(Cl)c3Cl)[C@@H](F)C2)nc1-c1ncc[nH]1 [Example 87] | 71%
Cc1[nH]c(C(=O)N[C@@H]2CCN(c3nc(-c4cnccn4)c(C(=O)O)s3)C[C@@H]2OCc2ccccc2)cc1Cl [Example 150, 2-[(3S,4R)-3-(benzyloxy)-4-{[(4-chloro-5-methyl-1H-pyrrol-2-yl)carbonyl]amino}piperidin-1-yl]-4-(pyrazin-2-yl)-1,3-thiazole-5-carboxylic acid] | 102%
Cc1cnc(-c2nc(N3CC[C@@H](NC(=O)c4[nH]c(C)c(Cl)c4Cl)[C@@H](F)C3)sc2C(=O)O)cn1 [Example 118, 2-((3S,4R)-4-(3,4-dichloro-5-methyl-1H-pyrrole-2-carboxamido)-3-fluoropiperidin-1-yl)-4-(5-methylpyrazin-2-yl)thiazole-5-carboxylic acid] | 92.1%
CO[C@H]1CN(c2nc(-c3nnc(C)o3)c(C(=O)O)s2)CC[C@H]1NC(=O)c1[nH]c(C)c(Cl)c1Cl [Example 90, 2-((3S,4R)-4-{[(3,4-Dichloro-5-methyl-1H-pyrrol-2-yl)carbonyl]amino}-3-methoxypiperidin-1-yl)-4-(5-methyl-1,3,4-oxadiazol-2-yl)-1,3-thiazole-5-carboxylic acid] | 101%
CO[C@H]1CN(c2nc(-c3ncnn3C)c(C(=O)O)s2)CC[C@H]1NC(=O)c1[nH]c(C)c(C#N)c1Cl [Example 29, 2-((3S,4R)-4-{[(3-Chloro-4-cyano-5-methyl-1H-pyrrol-2-yl)carbonyl]amino}-3-methoxypiperidin-1-yl)-4-(1-methyl-1H-1,2,4-triazol-5-yl)-1,3-thiazole-5-carboxylic acid] | 101%
CCOC(=O)c1sc(N2CC[C@@H](NC(=O)c3[nH]c(C)c(Cl)c3C#N)[C@@H](OC)C2)nc1-c1cn(C)cn1 [Example 108, ethyl 2-((3S,4R)-4-(4-chloro-3-cyano-5-methyl-1H-pyrrole-2-carboxamido)-3-methoxypiperidin-1-yl)-4-(1-methyl-1H-imidazol-4-yl)thiazole-5-carboxylate] | 86.6%
CO[C@H]1CN(c2nc(-c3ncccn3)c(C(=O)O)s2)CC[C@H]1NC(=O)c1[nH]c(C)c(Cl)c1C#N [Example 122, 2-((3S,4R)-4-(4-chloro-3-cyano-5-methyl-1H-pyrrole-2-carboxamido)-3-methoxypiperidin-1-yl)-4-(pyrimidin-2-yl)thiazole-5-carboxylic acid] | 103%
CCOC(=O)c1sc(N2CC[C@@H](NC(=O)c3[nH]c(C)c(Cl)c3Cl)[C@@H](OC)C2)nc1-c1nc(C)no1 [Example 84] | 103%

Structure (SMILES) | inhibition at 1 µM
COC(=O)c1sc(N2CC[C@@H](NC(=O)c3[nH]c(C)c(Cl)c3Cl)[C@@H](OC)C2)nc1-c1csc(N(C)C)n1 [Example 73] | 99.9%
CCOC(=O)c1sc(N2CC[C@@H](NC(=O)c3[nH]c(C)c(Cl)c3Cl)[C@@H](OC)C2)nc1-c1ncccc1F [Example 97, ethyl 2-((3S,4R)-4-(3,4-dichloro-5-methyl-1H-pyrrole-2-carboxamido)-3-methoxypiperidin-1-yl)-4-(3-fluoropyridin-2-yl)thiazole-5-carboxylate] | 91.5%
COc1ccnc(-c2nc(N3CC[C@@H](NC(=O)c4[nH]c(C)c(Cl)c4Cl)[C@@H](OC)C3)sc2C(=O)O)c1 [Example 112, 2-((3S,4R)-4-(3,4-dichloro-5-methyl-1H-pyrrole-2-carboxamido)-3-methoxypiperidin-1-yl)-4-(4-methoxypyridin-2-yl)thiazole-5-carboxylic acid] | 81.1%
Cc1[nH]c(C(=O)N[C@@H]2CCN(c3nc(-c4ccn[nH]4)c(C(=O)O)s3)C[C@@H]2F)c(Cl)c1Cl [Example 24, 2-((3S,4R)-4-{[(3,4-Dichloro-5-methyl-1H-pyrrol-2-yl)carbonyl]amino}-3-fluoropiperidin-1-yl)-4-(1H-pyrazol-5-yl)-1,3-thiazole-5-carboxylic acid] | 65.9%
COC(=O)c1sc(N2CC[C@@H](NC(=O)c3[nH]c(C)c(Cl)c3Cl)[C@@H](OC)C2)nc1-c1ccno1 [Example 60] | 104%
COCCn1ccnc1-c1nc(N2CC[C@@H](NC(=O)c3[nH]c(C)c(C#N)c3Cl)[C@@H](OC)C2)sc1C(=O)OC [Example 69] | 100%
Cc1[nH]c(C(=O)N[C@@H]2CCN(c3nc(-c4cn(C)cn4)c(C(=O)O)s3)C[C@@H]2F)c(Cl)c1Cl [Example 41, 2-((3S,4R)-4-{[(3,4-Dichloro-5-methyl-1H-pyrrol-2-yl)carbonyl]amino}-3-fluoropiperidin-1-yl)-4-(1-methyl-1H-imidazol-4-yl)-1,3-thiazole-5-carboxylic acid] | 104%
COC(=O)c1sc(N2CC[C@@H](NC(=O)c3[nH]c(C)c(Cl)c3Cl)[C@@H](OC)C2)nc1-c1ncc(C)nc1C [Example 93, methyl 2-((3S,4R)-4-(3,4-dichloro-5-methyl-1H-pyrrole-2-carboxamido)-3-methoxypiperidin-1-yl)-4-(3,5-dimethylpyrazin-2-yl)thiazole-5-carboxylate] | 99.3%
Cc1[nH]c(C(=O)N[C@@H]2CCN(c3nc(-c4ncccc4F)c(C(=O)O)s3)C[C@@H]2OCc2ccccc2)c(Cl)c1Cl [Example 144, 2-[(3S,4R)-3-(benzyloxy)-4-{[(3,4-dichloro-5-methyl-1H-pyrrol-2-yl)carbonyl]amino}piperidin-1-yl]-4-(3-fluoropyridin-2-yl)-1,3-thiazole-5-carboxylic acid] | 114%
CO[C@H]1CN(c2nc(-c3ncccn3)c(C(=O)O)s2)CC[C@H]1NC(=O)c1[nH]c(C)c(Cl)c1Cl [Example 1, 2-((3S,4R)-4-{[(3,4-Dichloro-5-methyl-1H-pyrrol-2-yl)carbonyl]amino}-3-methoxypiperidin-1-yl)-4-pyrimidin-2-yl-1,3-thiazole-5-carboxylic acid] | 99.2%
COC(=O)c1sc(N2CC[C@@H](NC(=O)c3[nH]c(C)c(Cl)c3Cl)[C@@H](OC)C2)nc1-c1csc(N)n1 [Example 71] | 101%
COC(=O)c1sc(N2CC[C@@H](NC(=O)c3[nH]c(C)c(Cl)c3Cl)[C@@H](F)C2)nc1-c1cn(C)nn1 [Example 99, methyl 2-((3S,4R)-4-(3,4-dichloro-5-methyl-1H-pyrrole-2-carboxamido)-3-fluoropiperidin-1-yl)-4-(1-methyl-1H-1,2,3-triazol-4-yl)thiazole-5-carboxylate] | 102%
CO[C@H]1CN(c2nc(-c3cnc(C)cn3)c(C(=O)O)s2)CC[C@H]1NC(=O)c1[nH]c(C)c(Cl)c1Cl [Example 113, 2-((3S,4R)-4-(3,4-dichloro-5-methyl-1H-pyrrole-2-carboxamido)-3-methoxypiperidin-1-yl)-4-(5-methylpyrazin-2-yl)thiazole-5-carboxylic acid] | 92.9%
CNc1nc(-c2nc(N3CC[C@@H](NC(=O)c4[nH]c(C)c(Cl)c4Cl)[C@@H](OC)C3)sc2C(=O)O)cs1 [Example 34, 2-((3S,4R)-4-{[(3,4-Dichloro-5-methyl-1H-pyrrol-2-yl)carbonyl]amino}-3-methoxypiperidin-1-yl)-2′-(methylamino)-4,4′-bi-1,3-thiazole-5-carboxylic acid] | 99.6%
COC(=O)c1sc(N2CC[C@@H](NC(=O)c3[nH]c(C)c(Cl)c3Cl)[C@@H](F)C2)nc1-c1ccno1 [Example 61] | 94.7%
